Reference: PubChem BioAssay (NCI)
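Tested at 5 concentrations; 48 h exposure; 96-well plates; endpoints linearly interpolated, else capped at highest concentration. The concentration for 50% growth inhibition is given as GI50. TGI marks complete inhibition of growth.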

Experiments:
Experiment in all cases: inhibition of tumour cell growth, NCI panel, 48 h
HOP-92 NSCLC = system: HOP-92 NSCLC
RPMI-8226 leukemia = system: RPMI-8226 leukemia
IGROV1 ovarian = system: IGROV1 ovarian
OVCAR-4 ovarian = system: OVCAR-4 ovarian
OVCAR-3 ovarian = system: OVCAR-3 ovarian
TK-10 renal = system: TK-10 renal
SR leukemia = system: SR leukemia
BT-549 breast = system: BT-549 breast
CCRF-CEM leukemia = system: CCRF-CEM leukemia
MOLT-4 leukemia = system: MOLT-4 leukemia
SN12C renal = system: SN12C renal
MALME-3M melanoma = system: MALME-3M melanoma
UACC-62 melanoma = system: UACC-62 melanoma
MDA-MB-435 = system: MDA-MB-435
SK-MEL-28 melanoma = system: SK-MEL-28 melanoma
HCT-15 colon = system: HCT-15 colon
DU-145 prostate = system: DU-145 prostate
OVCAR-8 ovarian = system: OVCAR-8 ovarian
LOX IMVI melanoma = system: LOX IMVI melanoma
A498 renal = system: A498 renal
U251 CNS = system: U251 CNS
NCI/ADR-RES ovarian = system: NCI/ADR-RES ovarian
K-562 leukemia = system: K-562 leukemia
KM12 colon = system: KM12 colon
OVCAR-5 ovarian = system: OVCAR-5 ovarian
SK-MEL-5 melanoma = system: SK-MEL-5 melanoma
HCC-2998 colon = system: HCC-2998 colon
SK-MEL-2 melanoma = system: SK-MEL-2 melanoma
SK-OV-3 ovarian = system: SK-OV-3 ovarian
HT29 colon = system: HT29 colon
MCF7 breast = system: MCF7 breast
EKVX NSCLC = system: EKVX NSCLC
T-47D breast = system: T-47D breast
RXF 393 renal = system: RXF 393 renal
PC-3 prostate = system: PC-3 prostate
ACHN renal = system: ACHN renal
SF-268 CNS = system: SF-268 CNS
HS 578T breast = system: HS 578T breast
UACC-257 melanoma = system: UACC-257 melanoma
M14 melanoma = system: M14 melanoma
NCI-H23 lung = system: NCI-H23 lung
SF-295 CNS = system: SF-295 CNS
CAKI-1 renal = system: CAKI-1 renal
SNB-19 CNS = system: SNB-19 CNS
A549 NSCLC = system: A549 NSCLC
NCI-H460 lung = system: NCI-H460 lung
MDA-MB-231 breast = system: MDA-MB-231 breast
SW-620 colon = system: SW-620 colon
786-0 renal = system: 786-0 renal
NCI-H522 lung = system: NCI-H522 lung
SF-539 CNS = system: SF-539 CNS
NCI-H226 lung = system: NCI-H226 lung
COLO 205 colon = system: COLO 205 colon
UO-31 renal = system: UO-31 renal
HOP-62 NSCLC = system: HOP-62 NSCLC
HCT-116 colon = system: HCT-116 colon
SNB-75 CNS = system: SNB-75 CNS
HL-60(TB) leukemia = system: HL-60(TB) leukemia

## Cc1ccc(NC(=O)Nc2nc3ccc([N+](=O)[O-])cc3s2)cc1
HOP-92 NSCLC
  GI50: 1.37 µM
  TGI: 5.44 µM
RPMI-8226 leukemia
  GI50: 1.26 µM
  TGI: 3.77 µM
IGROV1 ovarian
  GI50: 3.59 µM
  TGI: 14.3 µM
OVCAR-4 ovarian
  GI50: 1.41 µM
  TGI: 9.32 µM
OVCAR-3 ovarian
  GI50: 2.43 µM
  TGI: 9.63 µM
TK-10 renal
  GI50: 2.94 µM
  TGI: 11.6 µM
SR leukemia
  GI50: 1.29 µM
  TGI: 5.06 µM
BT-549 breast
  GI50: 2.02 µM
  TGI: 5.88 µM
CCRF-CEM leukemia
  GI50: 2.13 µM
  TGI: 7.71 µM
MOLT-4 leukemia
  GI50: 2.09 µM
  TGI: 6.33 µM
SN12C renal
  GI50: 2.54 µM
  TGI: 12.5 µM
MALME-3M melanoma
  GI50: 2.66 µM
  TGI: 7.71 µM
UACC-62 melanoma
  GI50: 2.77 µM
  TGI: 13.7 µM
MDA-MB-435
  GI50: 2.32 µM
  TGI: 9.33 µM
SK-MEL-28 melanoma
  GI50: 3.1 µM
  TGI: 15.1 µM
HCT-15 colon
  GI50: 2.37 µM
  TGI: 9.19 µM
DU-145 prostate
  GI50: 3.26 µM
  TGI: 11.7 µM
OVCAR-8 ovarian
  GI50: 3.2 µM
  TGI: 14 µM
LOX IMVI melanoma
  GI50: 2.36 µM
  TGI: 5.96 µM
A498 renal
  GI50: 1.41 µM
  TGI: 4.38 µM
U251 CNS
  GI50: 2.34 µM
  TGI: 10.9 µM
NCI/ADR-RES ovarian
  GI50: 2.5 µM
  TGI: 7.79 µM
K-562 leukemia
  GI50: 1.44 µM
  TGI: 9.56 µM
KM12 colon
  GI50: 2.45 µM
  TGI: 8.15 µM
OVCAR-5 ovarian
  GI50: 4.32 µM
  TGI: 18.3 µM
SK-MEL-5 melanoma
  GI50: 1.42 µM
  TGI: 3.51 µM
HCC-2998 colon
  GI50: 2.6 µM
  TGI: 10.1 µM
SK-MEL-2 melanoma
  GI50: 2.19 µM
  TGI: 6.03 µM
SK-OV-3 ovarian
  GI50: 2.91 µM
  TGI: 10.1 µM
HT29 colon
  GI50: 3.28 µM
  TGI: 11.6 µM
MCF7 breast
  GI50: 1.99 µM
  TGI: 7.77 µM
EKVX NSCLC
  GI50: 2.75 µM
  TGI: 10.9 µM
T-47D breast
  GI50: 0.799 µM
  TGI: 6.4 µM
RXF 393 renal
  GI50: 2.01 µM
  TGI: 5.75 µM
PC-3 prostate
  GI50: 2.14 µM
  TGI: 8.83 µM
ACHN renal
  GI50: 2.78 µM
  TGI: 11.4 µM
SF-268 CNS
  GI50: 3.52 µM
  TGI: 16 µM
HS 578T breast
  GI50: 3.02 µM
  TGI: 13.9 µM
UACC-257 melanoma
  GI50: 1.82 µM
  TGI: 6.78 µM
M14 melanoma
  GI50: 2.92 µM
  TGI: 10.6 µM
NCI-H23 lung
  GI50: 1.89 µM
  TGI: 6.78 µM
SF-295 CNS
  GI50: 1.92 µM
  TGI: 5.21 µM
CAKI-1 renal
  GI50: 1.79 µM
  TGI: 6.23 µM
SNB-19 CNS
  GI50: 2.7 µM
  TGI: 13.4 µM
A549 NSCLC
  GI50: 2.79 µM
  TGI: 10.5 µM
NCI-H460 lung
  GI50: 2.84 µM
  TGI: 10.4 µM
MDA-MB-231 breast
  GI50: 3.04 µM
  TGI: 10.3 µM
SW-620 colon
  GI50: 2.93 µM
  TGI: 10.7 µM
786-0 renal
  GI50: 2.89 µM
  TGI: 12.4 µM
NCI-H522 lung
  GI50: 1.14 µM
  TGI: 5.21 µM
SF-539 CNS
  GI50: 3.15 µM
  TGI: 10.4 µM
NCI-H226 lung
  GI50: 2.75 µM
  TGI: 12.3 µM
COLO 205 colon
  GI50: 1.91 µM
  TGI: 3.84 µM
UO-31 renal
  GI50: 2.51 µM
  TGI: 10.5 µM
HOP-62 NSCLC
  GI50: 3.1 µM
  TGI: 10.7 µM
HCT-116 colon
  GI50: 1.79 µM
  TGI: 5.22 µM
SNB-75 CNS
  GI50: 1.95 µM
  TGI: 6.27 µM

## COc1ccc(C2C(C#N)=C(/N=C/c3ccc(Cl)cc3)Oc3c2sc2c(C)cccc32)cc1 (stereo not given)
HOP-92 NSCLC
  GI50: 1.69 µM
  TGI: 18.1 µM
RPMI-8226 leukemia
  GI50: 3.21 µM
  TGI: 18.5 µM
IGROV1 ovarian
  GI50: 2.27 µM
  TGI: 17.4 µM
OVCAR-4 ovarian
  GI50: 3.4 µM
  TGI: 25.9 µM
OVCAR-3 ovarian
  GI50: 0.753 µM
  TGI: 3.69 µM
TK-10 renal
  GI50: 12.5 µM
  TGI: 37.1 µM
SR leukemia
  GI50: 0.413 µM
  TGI: 20.6 µM
BT-549 breast
  GI50: 1.21 µM
  TGI: 18.8 µM
HL-60(TB) leukemia
  GI50: 0.433 µM
  TGI: 2.94 µM
CCRF-CEM leukemia
  GI50: 3.01 µM
  TGI: > 100 µM
MOLT-4 leukemia
  GI50: 3.37 µM
  TGI: 28.7 µM
SN12C renal
  GI50: 2.79 µM
  TGI: 12.7 µM
MALME-3M melanoma
  GI50: 2.28 µM
  TGI: 19.8 µM
UACC-62 melanoma
  GI50: 0.515 µM
  TGI: 10.2 µM
MDA-MB-435
  GI50: 0.312 µM
  TGI: 0.993 µM
SK-MEL-28 melanoma
  GI50: 1.51 µM
  TGI: 18.8 µM
HCT-15 colon
  GI50: 0.731 µM
  TGI: 10.5 µM
DU-145 prostate
  GI50: 3.2 µM
  TGI: 14 µM
OVCAR-8 ovarian
  GI50: 2.87 µM
  TGI: 11.4 µM
LOX IMVI melanoma
  GI50: 1.89 µM
  TGI: 13.4 µM
A498 renal
  GI50: 12.6 µM
  TGI: 27.5 µM
U251 CNS
  GI50: 2.96 µM
  TGI: 14 µM
NCI/ADR-RES ovarian
  GI50: 0.668 µM
  TGI: 4.49 µM
K-562 leukemia
  GI50: 0.404 µM
  TGI: > 100 µM
KM12 colon
  GI50: 1.4 µM
  TGI: 12.6 µM
OVCAR-5 ovarian
  GI50: 2.81 µM
  TGI: 12.4 µM
SK-MEL-5 melanoma
  GI50: 1.44 µM
  TGI: 13.1 µM
HCC-2998 colon
  GI50: 1.91 µM
  TGI: 5.99 µM
SK-MEL-2 melanoma
  GI50: 2.17 µM
  TGI: 13 µM
SK-OV-3 ovarian
  GI50: 3.12 µM
  TGI: 17.5 µM
HT29 colon
  GI50: 2.76 µM
  TGI: 8.76 µM
MCF7 breast
  GI50: 0.549 µM
  TGI: 21.4 µM
EKVX NSCLC
  GI50: 3.87 µM
  TGI: 17.3 µM
T-47D breast
  GI50: 1.77 µM
  TGI: 23.1 µM
RXF 393 renal
  GI50: 2.12 µM
  TGI: 10.5 µM
PC-3 prostate
  GI50: 2.01 µM
  TGI: 18.1 µM
ACHN renal
  GI50: 3.94 µM
  TGI: 17.8 µM
SF-268 CNS
  GI50: 4.28 µM
  TGI: 21.2 µM
HS 578T breast
  GI50: 2.44 µM
  TGI: 19.1 µM
UACC-257 melanoma
  GI50: 12.3 µM
  TGI: 31.5 µM
M14 melanoma
  GI50: 1.59 µM
  TGI: 10.8 µM
NCI-H23 lung
  GI50: 2.34 µM
  TGI: 12.6 µM
SF-295 CNS
  GI50: 1.19 µM
  TGI: 10.3 µM
CAKI-1 renal
  GI50: 4.03 µM
  TGI: 22.3 µM
SNB-19 CNS
  GI50: 3.57 µM
  TGI: 16.7 µM
A549 NSCLC
  GI50: 2.22 µM
  TGI: 28.9 µM
NCI-H460 lung
  GI50: 1.71 µM
  TGI: 12.8 µM
MDA-MB-231 breast
  GI50: 2.73 µM
  TGI: 13.8 µM
SW-620 colon
  GI50: 1.11 µM
  TGI: 16.3 µM
786-0 renal
  GI50: 4.34 µM
  TGI: 28.2 µM
NCI-H522 lung
  GI50: 0.247 µM
  TGI: 0.858 µM
SF-539 CNS
  GI50: 1.31 µM
  TGI: 3.54 µM
NCI-H226 lung
  GI50: 6.02 µM
  TGI: 24.3 µM
COLO 205 colon
  GI50: 2.59 µM
  TGI: 6.96 µM
UO-31 renal
  GI50: 1.97 µM
  TGI: 16 µM
HOP-62 NSCLC
  GI50: 4.07 µM
  TGI: 19.7 µM
HCT-116 colon
  GI50: 1.55 µM
  TGI: 13.4 µM
SNB-75 CNS
  GI50: 3.08 µM
  TGI: 23.2 µM
